Source: article PMC4066673 (Biochemistry, 2012)

Legend:
hTHEM4 [1] = target: T1, hTHEM4 (Homo sapiens, UniProt Q5T1C6); test: product inhibition of thioesterase activity; format: biochemical
hTHEM4 [2] = target: T1, hTHEM4; test: substrate hydrolysed in the competitive inhibition assay; format: biochemical

T1 sequence (Q5T1C6 37-240): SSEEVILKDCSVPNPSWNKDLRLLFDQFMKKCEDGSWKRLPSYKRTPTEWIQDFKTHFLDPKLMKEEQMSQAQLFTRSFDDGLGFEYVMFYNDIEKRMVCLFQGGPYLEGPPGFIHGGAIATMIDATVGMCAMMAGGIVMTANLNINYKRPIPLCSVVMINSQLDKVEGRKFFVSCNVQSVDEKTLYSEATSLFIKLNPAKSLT

SMILES | Ki (hTHEM4 [1]) | substrate hydrolysed in the competitive inhibition assay (hTHEM4 [2])
CC(C)(COP(=O)(O)OP(=O)(O)OC[C@H]1O[C@@H](n2cnc3c(N)ncnc32)[C@H](O)[C@@H]1OP(=O)(O)O)[C@@H](O)C(=O)NCCC(=O)NCCS [CoA] | 81 ± 1 µM | 
CCCCCCCCCC(=O)SCCNC(=O)CCNC(=O)[C@H](O)C(C)(C)COP(=O)(O)OP(=O)(O)OC[C@H]1O[C@@H](n2cnc3c(N)ncnc32)[C@H](O)[C@@H]1OP(=O)(O)O [decanoyl-CoA] |  | competitive inhibitor of hTHEM4-catalyzed decanoyl-CoA hydrolysis
